Key:
Conditions in all cases: Compound concentration 1000.0 nM
[1] = target: Activin receptor type-1-like (Homo sapiens) (UniProt P37023)
[2] = target: Calcium/calmodulin-dependent protein kinase type 1G (Homo sapiens) (UniProt Q96NX5)
[3] = target: Cyclin-dependent kinase 2 (Homo sapiens) (UniProt P24941)
[4] = target: Cyclin-dependent kinase-like 3 (Homo sapiens) (UniProt Q8IVW4)
[5] = target: Serine/threonine-protein kinase DCLK1 (Homo sapiens) (UniProt O15075)
[6] = target: T1, Myotonin-protein kinase (Homo sapiens) (UniProt Q09013)
T1 sequence (whole entry): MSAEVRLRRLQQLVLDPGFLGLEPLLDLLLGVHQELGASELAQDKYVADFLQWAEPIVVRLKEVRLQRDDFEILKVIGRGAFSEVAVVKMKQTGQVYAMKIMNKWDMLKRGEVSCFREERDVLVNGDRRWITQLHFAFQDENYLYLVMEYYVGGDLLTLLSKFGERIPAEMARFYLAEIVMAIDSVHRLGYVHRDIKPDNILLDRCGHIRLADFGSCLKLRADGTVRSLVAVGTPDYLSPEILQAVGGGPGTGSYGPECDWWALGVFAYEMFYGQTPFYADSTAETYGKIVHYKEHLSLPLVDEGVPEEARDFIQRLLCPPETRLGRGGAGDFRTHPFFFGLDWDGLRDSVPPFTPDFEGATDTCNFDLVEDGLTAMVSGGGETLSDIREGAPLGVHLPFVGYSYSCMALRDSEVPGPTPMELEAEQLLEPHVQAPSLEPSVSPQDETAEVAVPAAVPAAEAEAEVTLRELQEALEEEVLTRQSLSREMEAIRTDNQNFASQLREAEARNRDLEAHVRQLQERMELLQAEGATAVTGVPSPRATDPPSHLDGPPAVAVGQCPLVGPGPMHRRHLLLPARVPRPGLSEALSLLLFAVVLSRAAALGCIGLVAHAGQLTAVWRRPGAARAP

[7] = target: Receptor-type tyrosine-protein kinase FLT3 (Homo sapiens) (UniProt P36888)
Receptor-type tyrosine-protein kinase FLT3 (Homo sapiens), sequence (P36888 whole entry): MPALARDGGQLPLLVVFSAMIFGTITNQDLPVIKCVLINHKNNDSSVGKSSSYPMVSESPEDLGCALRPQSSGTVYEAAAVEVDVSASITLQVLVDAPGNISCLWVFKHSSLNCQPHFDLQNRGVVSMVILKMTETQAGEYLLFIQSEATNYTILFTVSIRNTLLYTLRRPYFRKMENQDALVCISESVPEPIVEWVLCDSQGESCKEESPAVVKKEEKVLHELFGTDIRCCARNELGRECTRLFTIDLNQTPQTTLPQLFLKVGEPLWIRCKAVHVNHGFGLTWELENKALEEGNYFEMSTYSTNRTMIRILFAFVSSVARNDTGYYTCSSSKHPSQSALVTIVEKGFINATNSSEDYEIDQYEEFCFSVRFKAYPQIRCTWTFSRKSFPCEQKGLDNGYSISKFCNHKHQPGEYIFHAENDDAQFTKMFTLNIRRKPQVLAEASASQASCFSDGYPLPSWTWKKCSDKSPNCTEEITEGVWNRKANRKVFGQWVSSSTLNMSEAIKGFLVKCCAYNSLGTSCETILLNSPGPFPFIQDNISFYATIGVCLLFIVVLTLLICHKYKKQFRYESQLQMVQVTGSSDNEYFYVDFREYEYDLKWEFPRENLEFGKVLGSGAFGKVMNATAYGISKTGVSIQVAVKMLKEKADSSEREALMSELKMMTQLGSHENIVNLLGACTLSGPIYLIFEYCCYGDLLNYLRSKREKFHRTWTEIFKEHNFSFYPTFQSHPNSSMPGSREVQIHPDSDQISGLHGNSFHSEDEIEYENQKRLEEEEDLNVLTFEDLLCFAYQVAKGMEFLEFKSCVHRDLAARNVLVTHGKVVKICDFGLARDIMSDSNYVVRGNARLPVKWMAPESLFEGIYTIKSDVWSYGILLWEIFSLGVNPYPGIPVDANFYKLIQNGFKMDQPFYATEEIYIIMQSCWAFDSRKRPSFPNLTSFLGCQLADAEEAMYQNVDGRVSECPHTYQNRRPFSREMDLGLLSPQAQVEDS

[8] = target: Mitogen-activated protein kinase 10 (Homo sapiens) (UniProt P53779)
Mitogen-activated protein kinase 10 (Homo sapiens), sequence (P53779 whole entry): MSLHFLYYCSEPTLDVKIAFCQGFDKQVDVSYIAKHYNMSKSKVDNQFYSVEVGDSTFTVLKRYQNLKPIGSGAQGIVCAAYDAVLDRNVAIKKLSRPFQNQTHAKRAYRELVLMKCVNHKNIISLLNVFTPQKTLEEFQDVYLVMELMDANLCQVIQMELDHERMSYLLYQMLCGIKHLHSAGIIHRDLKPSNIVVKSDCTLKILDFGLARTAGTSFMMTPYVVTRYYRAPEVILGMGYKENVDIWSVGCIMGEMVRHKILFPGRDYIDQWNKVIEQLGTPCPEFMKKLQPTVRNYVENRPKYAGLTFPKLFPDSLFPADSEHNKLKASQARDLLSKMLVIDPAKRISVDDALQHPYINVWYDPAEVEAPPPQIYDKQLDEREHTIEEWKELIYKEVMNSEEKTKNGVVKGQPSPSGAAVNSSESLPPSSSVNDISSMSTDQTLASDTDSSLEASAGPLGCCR

[9] = target: T2, Tyrosine-protein kinase Mer (Homo sapiens) (UniProt Q12866)
T2 sequence (whole entry): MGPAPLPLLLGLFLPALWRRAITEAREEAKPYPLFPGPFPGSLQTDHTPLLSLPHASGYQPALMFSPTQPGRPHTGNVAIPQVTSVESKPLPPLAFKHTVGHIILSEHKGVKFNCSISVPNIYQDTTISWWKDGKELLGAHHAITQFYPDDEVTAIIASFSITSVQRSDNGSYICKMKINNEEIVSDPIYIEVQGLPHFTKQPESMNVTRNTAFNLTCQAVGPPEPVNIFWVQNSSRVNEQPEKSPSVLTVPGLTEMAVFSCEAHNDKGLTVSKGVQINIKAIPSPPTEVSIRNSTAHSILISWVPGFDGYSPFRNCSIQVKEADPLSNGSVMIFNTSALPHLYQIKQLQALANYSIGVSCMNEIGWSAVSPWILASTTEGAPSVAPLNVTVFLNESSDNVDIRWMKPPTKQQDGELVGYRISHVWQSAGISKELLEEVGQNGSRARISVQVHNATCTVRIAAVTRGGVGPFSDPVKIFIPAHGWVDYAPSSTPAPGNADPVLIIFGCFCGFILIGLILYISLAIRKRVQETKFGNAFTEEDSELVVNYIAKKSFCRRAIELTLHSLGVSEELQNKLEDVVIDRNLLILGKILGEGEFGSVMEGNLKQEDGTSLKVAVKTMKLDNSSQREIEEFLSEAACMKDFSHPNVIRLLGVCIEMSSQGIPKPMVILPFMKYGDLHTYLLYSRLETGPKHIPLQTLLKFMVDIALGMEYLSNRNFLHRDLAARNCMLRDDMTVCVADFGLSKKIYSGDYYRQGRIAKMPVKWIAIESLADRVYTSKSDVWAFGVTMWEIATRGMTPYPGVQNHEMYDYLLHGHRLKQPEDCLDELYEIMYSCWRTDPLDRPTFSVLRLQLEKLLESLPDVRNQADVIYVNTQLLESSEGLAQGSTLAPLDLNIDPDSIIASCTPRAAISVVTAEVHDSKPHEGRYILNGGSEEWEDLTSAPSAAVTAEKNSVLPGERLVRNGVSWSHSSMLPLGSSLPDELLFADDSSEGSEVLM

[10] = target: T3, Serine/threonine-protein kinase Nek2 (Homo sapiens) (UniProt P51955)
T3 sequence (whole entry): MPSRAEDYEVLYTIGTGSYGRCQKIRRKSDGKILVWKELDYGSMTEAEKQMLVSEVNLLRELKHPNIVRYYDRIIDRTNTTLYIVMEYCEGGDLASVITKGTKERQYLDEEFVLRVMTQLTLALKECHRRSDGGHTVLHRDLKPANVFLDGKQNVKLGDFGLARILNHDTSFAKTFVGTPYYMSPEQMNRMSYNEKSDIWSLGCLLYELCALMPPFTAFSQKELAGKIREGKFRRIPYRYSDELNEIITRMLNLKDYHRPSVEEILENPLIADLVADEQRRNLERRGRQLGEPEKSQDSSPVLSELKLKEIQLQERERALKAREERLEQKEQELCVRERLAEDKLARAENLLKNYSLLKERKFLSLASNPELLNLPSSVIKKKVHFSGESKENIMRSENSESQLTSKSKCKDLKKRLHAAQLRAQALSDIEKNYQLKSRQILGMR

[11] = target: Serine/threonine-protein kinase PAK 1 (Homo sapiens) (UniProt Q13153)
[12] = target: Ribosomal protein S6 kinase alpha-4 (Homo sapiens) (UniProt O75676)
Ribosomal protein S6 kinase alpha-4 (Homo sapiens), sequence (O75676 whole entry, looked up): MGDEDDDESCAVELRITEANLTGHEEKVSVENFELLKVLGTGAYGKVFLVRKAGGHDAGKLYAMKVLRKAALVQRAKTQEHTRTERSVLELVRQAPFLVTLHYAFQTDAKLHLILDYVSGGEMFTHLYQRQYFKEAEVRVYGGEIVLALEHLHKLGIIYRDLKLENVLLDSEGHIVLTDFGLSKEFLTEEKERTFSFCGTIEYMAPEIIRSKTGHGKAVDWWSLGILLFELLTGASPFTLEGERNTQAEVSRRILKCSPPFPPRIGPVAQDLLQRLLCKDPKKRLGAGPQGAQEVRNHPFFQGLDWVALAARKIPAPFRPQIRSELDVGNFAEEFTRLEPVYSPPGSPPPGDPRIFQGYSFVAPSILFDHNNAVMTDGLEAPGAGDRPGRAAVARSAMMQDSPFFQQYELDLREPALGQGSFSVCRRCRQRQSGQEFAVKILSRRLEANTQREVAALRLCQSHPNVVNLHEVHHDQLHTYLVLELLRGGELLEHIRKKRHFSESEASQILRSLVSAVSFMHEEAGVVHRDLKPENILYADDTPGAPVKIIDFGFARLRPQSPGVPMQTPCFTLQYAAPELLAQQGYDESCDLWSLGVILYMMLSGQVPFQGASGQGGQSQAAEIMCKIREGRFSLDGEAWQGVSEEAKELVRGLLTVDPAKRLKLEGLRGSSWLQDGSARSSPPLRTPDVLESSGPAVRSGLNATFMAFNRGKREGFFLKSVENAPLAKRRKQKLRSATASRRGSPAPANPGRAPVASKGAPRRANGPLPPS

[13] = target: SNF-related serine/threonine-protein kinase (Homo sapiens) (UniProt Q9NRH2)
SNF-related serine/threonine-protein kinase (Homo sapiens), sequence (Q9NRH2 whole entry): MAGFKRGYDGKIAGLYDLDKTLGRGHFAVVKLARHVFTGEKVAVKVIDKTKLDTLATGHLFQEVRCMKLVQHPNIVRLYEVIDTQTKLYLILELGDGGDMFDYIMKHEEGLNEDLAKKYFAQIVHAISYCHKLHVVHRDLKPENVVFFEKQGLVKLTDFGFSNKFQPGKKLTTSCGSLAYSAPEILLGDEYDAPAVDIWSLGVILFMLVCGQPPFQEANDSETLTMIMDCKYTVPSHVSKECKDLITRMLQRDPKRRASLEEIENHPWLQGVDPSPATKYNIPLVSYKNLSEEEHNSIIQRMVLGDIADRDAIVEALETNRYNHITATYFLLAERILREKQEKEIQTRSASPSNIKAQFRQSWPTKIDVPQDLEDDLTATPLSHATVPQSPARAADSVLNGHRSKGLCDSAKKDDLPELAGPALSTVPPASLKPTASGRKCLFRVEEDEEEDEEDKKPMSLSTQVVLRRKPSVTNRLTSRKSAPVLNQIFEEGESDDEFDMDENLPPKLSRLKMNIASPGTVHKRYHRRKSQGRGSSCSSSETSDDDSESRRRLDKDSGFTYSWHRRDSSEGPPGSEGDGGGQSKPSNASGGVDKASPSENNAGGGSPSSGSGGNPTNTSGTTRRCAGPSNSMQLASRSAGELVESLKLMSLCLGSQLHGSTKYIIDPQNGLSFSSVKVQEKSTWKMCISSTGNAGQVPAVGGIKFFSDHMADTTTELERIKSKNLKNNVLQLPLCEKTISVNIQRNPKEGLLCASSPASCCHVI

Measured: residual activity

Calcium/calmodulin-dependent protein kinase type 1G (Homo sapiens), sequence (Q96NX5 whole entry): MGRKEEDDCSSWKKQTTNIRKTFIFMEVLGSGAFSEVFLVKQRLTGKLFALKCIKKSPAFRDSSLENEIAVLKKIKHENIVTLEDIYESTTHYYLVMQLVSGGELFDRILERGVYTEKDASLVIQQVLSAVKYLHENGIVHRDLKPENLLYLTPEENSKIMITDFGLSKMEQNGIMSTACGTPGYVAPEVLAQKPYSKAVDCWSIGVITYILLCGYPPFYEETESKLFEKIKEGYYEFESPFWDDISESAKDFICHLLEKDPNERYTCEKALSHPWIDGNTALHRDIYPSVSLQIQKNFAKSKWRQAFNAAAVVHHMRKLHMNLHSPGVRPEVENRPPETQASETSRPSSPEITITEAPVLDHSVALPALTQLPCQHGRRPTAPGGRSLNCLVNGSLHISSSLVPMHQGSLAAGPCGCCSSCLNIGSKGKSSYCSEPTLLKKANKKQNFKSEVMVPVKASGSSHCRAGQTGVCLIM
Cyclin-dependent kinase-like 3 (Homo sapiens), sequence (Q8IVW4 whole entry, looked up): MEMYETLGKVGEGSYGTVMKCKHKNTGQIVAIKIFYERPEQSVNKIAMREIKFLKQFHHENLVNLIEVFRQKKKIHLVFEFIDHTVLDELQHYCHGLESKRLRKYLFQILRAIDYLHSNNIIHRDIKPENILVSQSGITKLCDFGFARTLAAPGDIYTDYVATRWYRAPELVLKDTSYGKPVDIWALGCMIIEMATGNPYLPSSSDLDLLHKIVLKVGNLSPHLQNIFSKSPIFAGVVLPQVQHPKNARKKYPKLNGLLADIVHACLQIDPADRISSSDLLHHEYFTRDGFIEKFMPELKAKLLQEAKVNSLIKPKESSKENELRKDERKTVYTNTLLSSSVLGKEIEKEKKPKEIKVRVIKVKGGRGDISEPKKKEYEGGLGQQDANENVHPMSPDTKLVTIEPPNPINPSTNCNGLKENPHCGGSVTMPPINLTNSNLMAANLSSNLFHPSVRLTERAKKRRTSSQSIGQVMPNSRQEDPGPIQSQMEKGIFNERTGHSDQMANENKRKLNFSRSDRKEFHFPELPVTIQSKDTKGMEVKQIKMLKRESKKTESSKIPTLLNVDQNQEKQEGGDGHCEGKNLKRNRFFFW
Serine/threonine-protein kinase DCLK1 (Homo sapiens), sequence (O15075 whole entry): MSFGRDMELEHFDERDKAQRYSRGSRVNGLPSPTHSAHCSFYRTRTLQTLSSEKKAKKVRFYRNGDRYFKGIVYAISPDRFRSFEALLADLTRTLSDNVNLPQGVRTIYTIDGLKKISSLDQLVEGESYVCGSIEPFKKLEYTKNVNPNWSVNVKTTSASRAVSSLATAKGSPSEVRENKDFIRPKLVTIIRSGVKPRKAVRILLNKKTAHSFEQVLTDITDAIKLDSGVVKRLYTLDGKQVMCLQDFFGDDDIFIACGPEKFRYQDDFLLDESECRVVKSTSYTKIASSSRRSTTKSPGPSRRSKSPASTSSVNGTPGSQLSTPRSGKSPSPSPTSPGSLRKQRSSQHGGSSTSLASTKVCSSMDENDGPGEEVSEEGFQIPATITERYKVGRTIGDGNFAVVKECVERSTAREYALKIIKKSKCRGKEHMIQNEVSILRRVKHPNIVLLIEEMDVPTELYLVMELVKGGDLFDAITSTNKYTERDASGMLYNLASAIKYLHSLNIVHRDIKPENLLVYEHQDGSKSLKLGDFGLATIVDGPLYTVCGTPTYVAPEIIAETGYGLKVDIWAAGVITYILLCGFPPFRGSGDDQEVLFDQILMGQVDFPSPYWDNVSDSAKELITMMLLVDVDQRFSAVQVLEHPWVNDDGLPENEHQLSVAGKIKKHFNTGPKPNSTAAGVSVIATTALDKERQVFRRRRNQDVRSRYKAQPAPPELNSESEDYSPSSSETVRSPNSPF

CN(C)C(=O)Cn1cc(-c2nc(C3(c4ccc(-c5cnc(N)nc5)cc4)CC3)no2)cn1 [BI 0153]
inactive: [1] 86% | [2] 100% | [3] 100% | [4] 80% | [5] 88% | [6] 82% | [7] 81% | [8] 93% | [9] 88% | [10] 100% | [11] 100% | [12] 91% | [13] 100%

CN(C)C(=O)Cn1cc(-c2nc([C@@](C)(c3ccc(-c4cnc(N)nc4)cc3)C3CC3)no2)cn1 [BI 665915]
inactive: [1] 84% | [2] 100% | [3] 96% | [4] 94% | [5] 71% | [6] 100% | [7] 82% | [8] 94% | [9] 100% | [10] 97% | [11] 100% | [12] 100% | [13] 89%

From ChEMBL document CHEMBL4507276 (2021)
